Calls of active or inactive are those of the source. The calls are words filed in the database; no cut-off is given here.
Legend:
[1] = tested on: BV-2; assay: Antiinflammatory activity in mouse BV-2 cells assessed as inhibition of LPS-induced NO production at 15 uM pretreated with compound for 1 hr followed by LPS stimulation for 24 hrs by Griess reagent based assay; assay type: functional, cell-based; settings: time 25.0 hrs
[2] = tested on: BV-2; assay: Cytotoxicity against mouse BV-2 cells assessed as reduction in cell viability at 120 uM after 24 hrs by MTT assay; assay type: cell-based; settings: bv-2, 24 h
[3] = tested on: BV-2; assay: Antiinflammatory activity against LPS-induced mouse BV-2 cells assessed as inhibition of TLR-4 protein expression at 15 to 60 uM pretreated with compound for 1 hr followed by LPS stimulation after 24 hrs by Western blot analysis; assay type: functional, cell-based; settings: dose 15-60 µM, time 25.0 hrs
[4] = tested on: BV-2; assay: Antiinflammatory activity against LPS-induced mouse BV-2 cells assessed as decrease in iNOS protein expression at 15 to 60 uM pretreated with compound for 1 hr followed by LPS stimulation after 24 hrs by Western blot analysis; assay type: functional, cell-based; settings: dose 15-60 µM, time 25.0 hrs
[5] = tested on: BV-2; assay: Antiinflammatory activity against mouse BV-2 cells assessed as inhibition of LPS-induced IL-1beta production at 15 to 60 uM pretreated with compound for 1 hr followed by LPS stimulation for 24 hrs by ELISA; assay type: functional, cell-based; settings: dose 15-60 µM, time 25.0 hrs
[6] = tested on: BV-2; assay: Antiinflammatory activity against LPS-induced mouse BV-2 cells assessed as inhibition of NFkB protein expression at 15 to 60 uM pretreated with compound for 1 hr followed by LPS stimulation after 24 hrs by Western blot analysis; assay type: functional, cell-based; settings: dose 15-60 µM, time 25.0 hrs
[7] = target: MAP kinase p38 (Mus musculus) (UniProt P47811+O08911+Q9WUI1+Q9Z1B7); assay: Inhibition of p38 phosphorylation in LPS-stimulated mouse BV-2 cells at 15 to 60 uM pretreated with compound for 1 hr followed by LPS stimulation for 24 hrs by Western blot analysis; assay type: cell-based; settings: dose 15-60 µM, time 25.0 hrs
[8] = tested on: BV-2; assay: Antiinflammatory activity against mouse BV-2 cells assessed as inhibition of LPS-induced TNFalpha production at 15 to 60 uM pretreated with compound for 1 hr followed by LPS stimulation for 24 hrs by ELISA; assay type: functional, cell-based; settings: dose 15-60 µM, time 25.0 hrs
[9] = target: T1, Inhibitor of nuclear factor kappa-B kinase subunit beta (Mus musculus) (UniProt O88351); assay: Inhibition of IKappaB phosphorylation in LPS-stimulated mouse BV-2 cells at 15 to 60 uM pretreated with compound for 1 hr followed by LPS stimulation for 24 hrs by Western blot analysis; assay type: cell-based; settings: dose 15-60 µM, time 25.0 hrs
T1 sequence (whole entry): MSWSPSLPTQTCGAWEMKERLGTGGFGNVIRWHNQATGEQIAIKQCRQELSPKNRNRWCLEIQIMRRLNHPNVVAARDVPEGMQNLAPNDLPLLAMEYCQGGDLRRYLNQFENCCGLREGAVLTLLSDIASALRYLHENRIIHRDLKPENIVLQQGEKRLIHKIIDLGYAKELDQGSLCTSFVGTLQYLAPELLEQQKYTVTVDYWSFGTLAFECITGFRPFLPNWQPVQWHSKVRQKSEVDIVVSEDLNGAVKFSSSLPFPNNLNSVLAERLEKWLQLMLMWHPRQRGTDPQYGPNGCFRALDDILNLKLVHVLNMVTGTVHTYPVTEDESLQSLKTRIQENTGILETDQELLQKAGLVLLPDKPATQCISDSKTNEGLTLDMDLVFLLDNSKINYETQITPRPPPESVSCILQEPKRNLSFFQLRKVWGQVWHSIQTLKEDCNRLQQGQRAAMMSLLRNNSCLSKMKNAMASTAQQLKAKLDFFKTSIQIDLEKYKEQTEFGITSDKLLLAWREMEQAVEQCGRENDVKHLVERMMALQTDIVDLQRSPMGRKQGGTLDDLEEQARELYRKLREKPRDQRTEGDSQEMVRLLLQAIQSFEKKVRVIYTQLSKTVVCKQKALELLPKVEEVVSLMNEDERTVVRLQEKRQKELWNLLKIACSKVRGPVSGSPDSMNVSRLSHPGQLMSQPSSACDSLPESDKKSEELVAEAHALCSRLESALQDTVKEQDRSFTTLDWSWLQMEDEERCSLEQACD

[10] = tested on: BV-2; assay: Antiinflammatory activity against mouse BV-2 cells assessed as inhibition of LPS-induced ROS production at 15 to 60 uM pretreated with compound for 1 hr followed by LPS stimulation for 24 hrs by DCFH-DA staining based fluorescence microscopy; assay type: functional, cell-based; settings: dose 15-60 µM, time 25.0 hrs
[11] = tested on: BV-2; assay: Antiinflammatory activity in mouse BV-2 cells assessed as inhibition of LPS-induced NO production pretreated with compound for 1 hr followed by LPS stimulation for 24 hrs by Griess reagent based assay; assay type: functional, cell-based
[12] = tested on: BV-2; assay: Antiinflammatory activity against mouse BV-2 cells assessed as inhibition of LPS-induced IL-6 production at 15 to 60 uM pretreated with compound for 1 hr followed by LPS stimulation for 24 hrs by ELISA; assay type: functional, cell-based; settings: dose 15-60 µM, time 25.0 hrs
[13] = tested on: BV-2; assay: Antiinflammatory activity against LPS-induced mouse BV-2 cells assessed as decrease in COX2 protein expression at 15 to 60 uM pretreated with compound for 1 hr followed by LPS stimulation after 24 hrs by Western blot analysis; assay type: functional, cell-based; settings: dose 15-60 µM, time 25.0 hrs

Row | Compound | inhibition [1] | Activity [2] | other results
1 | C=C/C=C/[C@H]1OC[C@@H]([C@@H](O)/C=C/[C@@H](C)O)[C@@H]1O | Active | Non-Toxic | –
2 | Cc1cc(O)cc(O)c1C(=O)OCC(=O)[C@@H](O)[C@H](C)O [GLOBOSUMONE C] | – | Non-Toxic | –
3 | C=C/C=C/[C@@H]1OC[C@@H](/C=C/C=C/C)[C@@H]1O | – | Non-Toxic | –
4 | C=C/C=C/[C@@H]1OC[C@H](/C=C/C=C/C)[C@H]1O | – | Non-Toxic | –
5 | C=C/C=C/[C@@H]1OC[C@H](/C=C/[C@@H](O)[C@@H](C)O)[C@H]1O | – | Non-Toxic | –
6 | C/C=C/C=C/[C@H]1CO[C@@H](/C=C/[C@@H](O)CO)[C@@H]1O | Active | Non-Toxic | –
7 | C=C/C=C/[C@@H]1OC[C@H](/C=C/[C@@H](O)[C@H](C)O)[C@H]1O | – | Non-Toxic | –
8 | Cc1cc(O)cc(O)c1C(=O)OC[C@@]1(C[C@@H](C)O)C[C@@H](O)C(=O)O1 | – | Non-Toxic | –
9 | C/C=C/C=C/[C@H]1CO[C@@H](/C=C/[C@H](O)CO)[C@@H]1O | – | Non-Toxic | inhibition [3]: Active; Activity [4]: Active; Activity [5]: Active; inhibition [6]: Active; inhibition [7]: Active; Activity [8]: Active; inhibition [9]: Active; Activity [10]: Active; IC50 [11]: 16.6 µM; Activity [12]: Active; Activity [13]: Active
10 | C=C/C=C/[C@@H]1OC[C@H](/C=C/C[C@H](C)O)[C@H]1O | Active | Non-Toxic | –

From ChEMBL document CHEMBL4840373, “Aureonitol Analogues and Orsellinic Acid Esters Isolated from Chaetomium elatum and Their Antineuroinflammatory Activity” (J Nat Prod, 2021)
